The structures appear in SMILES notation.

For 98 compounds, cytotoxicity results are on record in ChEMBL document CHEMBL3507680, “University of Dundee, Gates Library screen for HepG2 cell viability”.

This series is described as follows: Human HepG2 cell viability assay in 384 well format. On the set-up: dose 125 nL, time 70.5 hour; concentration not given beside the values. Particulars: HepG2 cells, read-out: Inhibition. Format: toxicity, cell-based.
With `COC(=O)C1CCN(C(=O)Cn2ccc(-c3ccccc3)n2)CC1`, the cytotoxicity at 70.5 h was -10.6%.

Consider `O=C(NCCNc1ncccn1)Nc1cc(C(F)(F)F)c[nH]c1=O`, for which the cytotoxicity at 70.5 h is -3.37%.

With `CCc1cn[nH]c1C1CCN(C(=O)c2cccc(O)c2C)CC1`, the cytotoxicity at 70.5 h is -12.3%.

On to `COc1cccc(CN(Cc2ncc[nH]2)Cc2ccco2)c1`, for which the cytotoxicity at 70.5 h was -2.53%.

Consider `Cc1nc(C)n(CC2CCCN2Cc2ccc(F)cc2C#N)n1` (stereo not drawn), for which the cytotoxicity at 70.5 h came to 5.18%.

Take `Cn1nnn(-c2ccc(NS(=O)(=O)c3ccc(Br)cc3)cc2)c1=O`: the cytotoxicity at 70.5 h was -2.26%.

Take `COCCC(=O)N1CCC2(CC1)CN(C(C)=O)Cc1ccccc1O2`: the cytotoxicity at 70.5 h turned out to be 0.622%.

For the compound `CN(C(=O)CSc1ccccn1)C1CCCN(CCc2ccccc2)C1` (stereo not drawn), the cytotoxicity at 70.5 h is -7.26%.

In the case of `CC(C)Oc1cccc(CN(C)C(=O)Nc2cccn(C)c2=O)c1`, the cytotoxicity at 70.5 h amounted to 2.82%.

With `CN1CCC(Oc2ccc(-n3ccnc3-c3ccncc3)cc2)CC1`, the cytotoxicity at 70.5 h was -13.2%.

On to `Cc1noc(C)c1CN(C)C(=O)c1nc(N2CCCC2)ncc1Cl`, for which the cytotoxicity at 70.5 h was -11.7%.

As for `Cc1noc(C(C)C)c1C(=O)NCC(c1ccsc1)N(C)C` (stereo not drawn), the cytotoxicity at 70.5 h was 4.78%.

On to `CC(C)C(C#N)N1CCN(C(=O)c2cc(-c3ccccn3)no2)CC1` (stereo not drawn), for which the cytotoxicity at 70.5 h was 3.13%.

On to `CCn1nc2c(cc1=O)CN(CCCN1CCCC1=O)CC2`, for which the cytotoxicity at 70.5 h came out at 16.8%.

For the compound `CCOc1cc(CNC(=O)c2cc(-c3ccccn3)no2)ccn1`, the cytotoxicity at 70.5 h is -6.7%.

Regarding `Cc1cc(N2CCN(Cc3ccccc3)CC(O)C2)cc(C)n1` (stereo not drawn), the cytotoxicity at 70.5 h was 11.5%.

Take `NC(=O)C1(c2cnccn2)CCCN1Cc1ccc(Cl)c(F)c1` (stereo not drawn): the cytotoxicity at 70.5 h was -5.01%.

As to `CN1C(=O)C2(CCN(Cc3nccn3C)CC2)c2ccccc21`, the cytotoxicity at 70.5 h was -4.36%.

Take `CC(CCN1CCC(n2cc(CCO)nn2)CC1)c1ccccc1` (stereo not drawn): the cytotoxicity at 70.5 h was -8.84%.

In the case of `N#CCCCS(=O)(=O)NC1(c2cccc(Br)c2)CC1`, the cytotoxicity at 70.5 h is -8.99%.

For the compound `CCN1N=C(C(=O)N2CCCC(c3nc(C)c(C)s3)C2)CCC1=O` (stereo not drawn), the cytotoxicity at 70.5 h is -0.596%.

Take `Cc1csc2c(C3CCN(C(=O)Cn4cncn4)CC3)nc(C)n12`: the cytotoxicity at 70.5 h is -2.36%.

As for `COc1ccc(-c2nnsc2C(=O)N2CCOCC2)cc1`, the cytotoxicity at 70.5 h was -11.2%.

Consider `O=C1NCCN(C(=O)CN2CCOC2=O)C1c1cccc(F)c1` (stereo not drawn), for which the cytotoxicity at 70.5 h was -18.2%.

As to `CCc1noc(C(C)N2CCN(Cc3nnc(C4CC4)o3)CC2)n1` (stereo not drawn), the cytotoxicity at 70.5 h was -14.9%.

Turning to `COC(=O)c1cccc(C(=O)N2CCN(C(=O)N(C)C)CC2(C)C)c1`, the cytotoxicity at 70.5 h came to 16.9%.

In the case of `CCc1noc(C(C)N2CCNCC2)n1` (stereo not drawn), the cytotoxicity at 70.5 h is 0.0476%.

`Cc1sc(-c2ccco2)nc1C(=O)NCC1CCOC1` (stereo not drawn): the cytotoxicity at 70.5 h was 1.39%.

For the compound `CS(=O)(=O)c1nccn1CCOc1ccccc1F`, the cytotoxicity at 70.5 h was determined as 13.8%.

On to `COc1ccccc1C(=O)Nc1c(F)c(C(=O)N2CCCC2)nn1C`, for which the cytotoxicity at 70.5 h is -0.747%.

On to `COC1CN(C(=O)COC(C)=O)CCC(=O)N(C)c2ccccc21` (stereo not drawn), for which the cytotoxicity at 70.5 h was -5.15%.

Regarding `O=C(c1cccnc1)N1CC[C@H](OCC2CC2)[C@@H]1Cc1cccnc1`, the cytotoxicity at 70.5 h is -5.08%.

With `CN(C)CCOCc1nnc2n1CCN(Cc1ccco1)CC2`, the cytotoxicity at 70.5 h was -4.62%.

As for `COc1ccc(CNCc2c(C)nc3sc(C)cn23)c(OC)c1OC`, the cytotoxicity at 70.5 h was 11.7%.

On to `N#Cc1ccc(Cl)cc1NCC1CC1`, for which the cytotoxicity at 70.5 h was -5.4%.

`O=C(NC1CC1)C1CCc2nnc(-c3cccnc3)n21` (stereo not drawn): the cytotoxicity at 70.5 h is -7.6%.

Take `Cc1cc(C)n(C2CCCN(C(=O)c3cnc4onc(C)c4c3)C2)n1` (stereo not drawn): the cytotoxicity at 70.5 h was -7.95%.

On to `O=C(NC[C@H]1OC[C@@H](NC2CCOCC2)[C@@H]1O)c1cccs1`, for which the cytotoxicity at 70.5 h is -8.14%.

`COc1ccc([C@@H]2CN(Cc3ccncc3)C[C@H]2N(C)C)cc1`: the cytotoxicity at 70.5 h is -9.42%.

On to `c1cncc(CN2CC(Cc3nccc4cc[nH]c34)C2)c1`, for which the cytotoxicity at 70.5 h was -3.48%.

On to `CNc1ncc(CN(C)c2nc(C)c3ccc(S(C)(=O)=O)cc3n2)cn1`, for which the cytotoxicity at 70.5 h was -6.87%.

Turning to `O=C(C1CCC1)N1C[C@@H]2CC[C@H](C1)N(S(=O)(=O)c1cccnc1)C2`, the cytotoxicity at 70.5 h was -5.86%.

With `Cc1cc(C)n(-c2cncc(NCCC(=O)NC(C)C)n2)n1`, the cytotoxicity at 70.5 h was -10.2%.

Take `CCCNC(=O)Nc1ccc2c(c1)N(S(=O)(=O)CC)CC2`: the cytotoxicity at 70.5 h was -6.9%.

As to `CN(C)C(=O)CNC(=O)c1nc2c(s1)CCCN2Cc1ccccc1`, the cytotoxicity at 70.5 h was -2.15%.

For the compound `COc1ccc(Cl)cc1CC(=O)N1CCN(CC(C)O)CC1` (stereo not drawn), the cytotoxicity at 70.5 h was -5.64%.

Consider `CCN(CC)CCC(=O)NCc1cc2n(n1)CCN(C(=O)N(C)C)C2`, for which the cytotoxicity at 70.5 h is -11.8%.

Turning to `Clc1ccc(C2(CNC3=NCCN3)CCCCC2)cc1`, the cytotoxicity at 70.5 h amounted to 26.8%.

In the case of `O=S(=O)(Cc1ccccc1Cl)CC(O)CO` (stereo not drawn), the cytotoxicity at 70.5 h amounted to 4.74%.

For the compound `Cc1nc(C)n(CC2CCCN2CC(=O)NCCc2cccs2)n1` (stereo not drawn), the cytotoxicity at 70.5 h is -15.5%.

In the case of `CC[C@H](C)Nc1nccc(-c2cnc3sccn3c2=O)n1`, the cytotoxicity at 70.5 h is -4.72%.

On to `CCc1nnc(CN(CC)C(=O)C2CC(=O)N(Cc3cccnc3)C2)o1` (stereo not drawn), for which the cytotoxicity at 70.5 h was -11.4%.

In the case of `C[C@@H]1CN(CCOc2ccc(Cl)cc2)CC[C@@]1(O)C1CCOCC1`, the cytotoxicity at 70.5 h came out at 7.29%.

`COc1cccc(CN2CCCC3(CCN(C(CO)CO)C3)C2)c1` (stereo not drawn): the cytotoxicity at 70.5 h was -7.1%.

For the compound `Cc1cc(CSCc2cc(C)on2)on1`, the cytotoxicity at 70.5 h was found to be 12.2%.

Consider `O=C(c1ccnn1COc1ccc(Cl)cc1)N1CCOCC1`, for which the cytotoxicity at 70.5 h was -6.03%.

In the case of `CC(=O)N1CCC(NC2(Cc3cc(C(C)(C)O)on3)COC2)CC1`, the cytotoxicity at 70.5 h was -7.16%.

On to `CCSc1ccccc1C(=O)N1CCC(S(=O)(=O)c2nncn2C)CC1`, for which the cytotoxicity at 70.5 h was -5.86%.

In the case of `CC1CCCCN1C(=O)c1ccn(COc2ccc(F)cc2)n1` (stereo not drawn), the cytotoxicity at 70.5 h is -9.66%.

For the compound `C[C@@H]1CN(C(=O)c2ccsc2)C[C@]12CCN(c1ccsc1)C2=O`, the cytotoxicity at 70.5 h came out at 1.23%.

With `COc1cccc(CNC(=O)N2CCN(Cc3cc(C)on3)CC2)c1`, the cytotoxicity at 70.5 h was -20.5%.

Regarding `COCCO[C@H]1CCN(c2cc(OC)ncn2)[C@H]1Cc1ccncc1`, the cytotoxicity at 70.5 h was -1.44%.

With `COC(=O)CNC(=O)C1CCN(S(C)(=O)=O)CC1`, the cytotoxicity at 70.5 h was -9.71%.

In the case of `COC(=O)c1ccc(F)c(S(=O)(=O)Nc2ccc(C(N)=O)cc2)c1`, the cytotoxicity at 70.5 h is -16.7%.

As to `CCCC(C)CS(=O)(=O)NCc1cccnc1OC` (stereo not drawn), the cytotoxicity at 70.5 h is 1.49%.

Take `CCc1nc(CC(=O)N2CCC(C(=O)N3CCCC3)CC2)cs1`: the cytotoxicity at 70.5 h is -9.83%.

Take `CNC(=O)[C@@H]1C[C@@H](n2cc(-c3ccc(CN4CC=CC4)cc3)nn2)CN1`: the cytotoxicity at 70.5 h was -9.45%.

Turning to `CC(=O)Nc1cccc(CN2CCN(C3=NCC(C)(C)S3)CC2)c1`, the cytotoxicity at 70.5 h was -10.7%.

`Cc1ccc(OCCN(C)C(=O)NC(C)c2nncn2C)cc1` (stereo not drawn): the cytotoxicity at 70.5 h is -5.04%.

`CCc1ccc2c(c1)C(CCNC(=O)CSC(F)(F)F)C(=O)N2` (stereo not drawn): the cytotoxicity at 70.5 h is -1.42%.

For the compound `Cc1noc([C@H]2C[C@H]3OCC[C@H]3N(Cc3scnc3C)C2)n1`, the cytotoxicity at 70.5 h was -7.11%.

Take `CCN1CCC2(CCN(Cc3ccc(OC)cc3)CC2)C1=O`: the cytotoxicity at 70.5 h is -3.84%.

In the case of `Cc1nn(C)cc1-c1ccnc(N2CCN(c3cnccn3)CC2)n1`, the cytotoxicity at 70.5 h was -0.227%.

With `Cc1cc(C)c2c(NCCC3(O)CCCC3)ncnc2n1`, the cytotoxicity at 70.5 h was -6.61%.

Consider `CCn1cc(CN2CCCN(C(=O)c3cccc(C#N)c3)CC2)cn1`, for which the cytotoxicity at 70.5 h was -3.9%.

Take `CC(=O)N1CCC2(CC1)CC(NC(=O)N(C)C)c1cc(C)ccc12` (stereo not drawn): the cytotoxicity at 70.5 h is -5.6%.

For `CCc1nc(C2CCCN2C(=O)c2cc(Cl)c[nH]2)no1` (stereo not drawn), the cytotoxicity at 70.5 h is -2.89%.

Consider `O=C(NCCN1CCCCC1CO)c1cc(-c2ccccc2)on1` (stereo not drawn), for which the cytotoxicity at 70.5 h is -4.82%.

Take `Cc1cs/c(=N\C(=O)Cn2nc(N3CCC(C)CC3)ccc2=O)[nH]1`: the cytotoxicity at 70.5 h was -9.83%.

Turning to `CCCc1nnsc1C(=O)NCC1CCN(S(C)(=O)=O)CC1`, the cytotoxicity at 70.5 h is -4%.

Take `CC(C)c1cc(C(=O)NCCN2CCOCC2)nc(N2CCCC2)n1`: the cytotoxicity at 70.5 h was -3.85%.

As for `O=C1COc2cc(C(=O)NS(=O)(=O)c3ccc(F)cc3F)ccc2N1`, the cytotoxicity at 70.5 h is -13.6%.

Take `CS(=O)(=O)N1C[C@@H]2CC[C@H](C1)N(CCC(=O)NCc1ccccc1F)C2`: the cytotoxicity at 70.5 h came out at 21.2%.

On to `CC(=O)c1cc(CN2CCCC2c2nc3ccc(C)cc3[nH]2)cs1` (stereo not drawn), for which the cytotoxicity at 70.5 h was -3.73%.

Turning to `CC(C)[C@@H]1CN(Cc2ccccn2)C[C@H]1NS(=O)(=O)N(C)C`, the cytotoxicity at 70.5 h was -0.239%.

On to `COc1nc(C)c(C(=O)N2CCc3[nH]nc(C4CCCC4)c3C2)s1`, for which the cytotoxicity at 70.5 h is -2%.

For `Cn1cc(C(=O)NCc2cn3c(n2)CN(CC2CCOCC2)CC3)cn1`, the cytotoxicity at 70.5 h was -1.1%.

Take `CCn1ccc(CNC(=O)c2cc(OC)cc(OC)c2)n1`: the cytotoxicity at 70.5 h is -10.5%.

As to `CC(C(=O)N1CCCN(c2ccc(C#N)cc2)CC1)n1ccnc1` (stereo not drawn), the cytotoxicity at 70.5 h was -1.24%.

Take `O=C(c1ccc(Cl)cc1)N1CCC2(CC1)C(=O)Nc1ccccc12`: the cytotoxicity at 70.5 h came out at 14.3%.

Regarding `CCC(O)CN1CCN(C(=O)c2cnc3n[nH]c(C)c3c2)CC1` (stereo not drawn), the cytotoxicity at 70.5 h is -7.48%.

In the case of `CN(C)C(=O)c1cn[nH]c1C1(C)CCCN(Cc2ccccn2)C1` (stereo not drawn), the cytotoxicity at 70.5 h was -1.05%.

Consider `O=C(C1CCSCC1)N1CCC2(CC1)COC(COCC1CC1)C2` (stereo not drawn), for which the cytotoxicity at 70.5 h is -11.3%.

With `O=C(CCn1cnnn1)N1CCCC(CO)(CCCc2ccccc2)C1` (stereo not drawn), the cytotoxicity at 70.5 h is -1.63%.

Take `CC(C)Nc1ccc2nc(C3CCNCC3)nn2c1`: the cytotoxicity at 70.5 h amounted to 9.18%.

With `Cc1noc2ncc(C(=O)N(CC3CCOC3)C3CC3)cc12` (stereo not drawn), the cytotoxicity at 70.5 h was -6.78%.

`O=C(c1ccccc1-c1nc[nH]n1)N1CCOC(C(F)(F)F)C1` (stereo not drawn): the cytotoxicity at 70.5 h is -2.49%.

For the compound `CCc1ccc(C(COC)NC(=O)c2ccc(F)c(NC(C)=O)c2)o1` (stereo not drawn), the cytotoxicity at 70.5 h came to 23.6%.
